This is an account of results in the METLIN SMRT retention time set (Domingo-Almenara et al. 2019).

Each structure is given as a SMILES string.

The data set in a line: gradient 5% acetonitrile 3 min, to 50% in 2 min, to 85% in 15 min, held 3 min, 100 µL/min. The following applies: column: Zorbax Extend-C18 2.1 x 50 mm; eluents: water / acetonitrile, 0.1% formic acid. Put shortly: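 Pure standards were run in mixtures of ~100 molecules by HPLC coupled to a quadrupole time-of-flight mass spectrometer. The column was a Zorbax Extend-C18 (2.1 × 50 mm, 1.8 μm) at 100 μL/min, with water and acetonitrile each containing 0.1% formic acid, in positive and negative ionization mode. Dead and dwell volumes were 40 μL and 900 μL. Retention time was taken from computationally picked adduct peaks, each manually inspected, with data collected over 3 months.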
For the molecule `O=C(Nc1ccccc1F)N1CC(F)(F)C[C@H]1CN1CCCC1`, the RP-LC retention time is 620 s. For `CCc1ccccc1NC(=O)CSc1nccc(N2CCN(c3cc(C)ccc3C)CC2)n1`, the RP-LC retention time was found to be 1060 s. On to `CCN1C(=O)c2cccc3c(NC(=O)Cc4ccc(S(C)(=O)=O)cc4)ccc1c23`, for which the RP-LC retention time turned out to be 657 s.

In turn, `O=S(=O)(NC1CCCCCCC1)c1ccc2c(c1)-c1oncc1CO2` showed an RP-LC retention time of 1030 s. Take `COc1ccc(OC)c(NC(=O)N2CCC(OC3CCN(S(C)(=O)=O)CC3)CC2)c1`: the RP-LC retention time stood at 751 s. In the case of `N#Cc1ccsc1NC(=O)c1cccc(Oc2ccccc2)c1` it was 988 s; in that of `CCOC(=O)c1c(C)n(C)c2ccccc12`, 887 s. Consider `CCc1ccc(C2=C(C)C(N3CCCN(C(=O)C(C)CC)CC3)=NS2(=O)=O)cc1` (stereo not drawn), for which the RP-LC retention time amounted to 888 s. In the case of `CC1(C)CC(=O)c2cn(-c3ccccc3)c(=O)c(C(=O)NCc3cccs3)c2C1` it was 924 s. Consider `COc1ccc2c(c1)C1(CCN(C(=O)Cc3ccccc3C)C1)C(=O)N2C` (stereo not drawn), for which the RP-LC retention time is 826 s.

Regarding `O=C(C1=CN(c2ccc(F)c(F)c2)c2cc(Cl)ccc2S1(=O)=O)N1CCOCC1`, the RP-LC retention time was 775 s. In the case of `COc1ccc(N2C(=O)C3N=NN(Cc4nc(-c5ccccc5C)no4)C3C2=O)cc1` (stereo not drawn), the RP-LC retention time was determined as 976 s.

`CCOC(=O)C1CCCN(C(=O)CCC(=O)N2CCCn3nc(C)cc32)C1` (stereo not drawn): the RP-LC retention time was 647 s.

As to `CCn1c(N2CCCC(C(=O)NCC3CCN(Cc4cc(C)ccc4C)CC3)C2)cc(=O)n(C)c1=O` (stereo not drawn), the RP-LC retention time is 665 s. Molecule `CN(CCc1ccc(Cl)c(Cl)c1)CCN1CCCC1` returned an RP-LC retention time of 646 s. In turn, `CC(C)C(=O)N1CCc2cc(-c3ccc(C(=O)NCCCN4CCN(C)CC4)cc3)ccc21` showed an RP-LC retention time of 607 s.

`O=C(NC1CCCCCC1)c1ccc2c(c1)nc1n2CCN(Cc2ccccc2)C1=O` gave an RP-LC retention time of 829 s. `COc1ccc(Cc2nc3nccc(-c4cc(OC)c(OC)c(OC)c4)n3n2)cc1` gave an RP-LC retention time of 860 s. In the case of `O=C(c1ccco1)N1CCN=C1SCc1cccc(C(F)(F)F)c1` it was 849 s. In the case of `COc1ccc(Cn2cc(S(=O)(=O)N3CCCC3)ccc2=O)cc1` it was 796 s; in that of `CNC(=O)c1cc(COc2nnc(Nc3ccc(Cl)cc3)c3ccoc23)ccn1`, 749 s. Consider `CCOC1CCN(C(=O)Nc2ccccc2C)CC1`, for which the RP-LC retention time was 732 s.

`O=C(CN1C(=O)NC(c2ccc(Cl)cc2)C2=C1COC2=O)NCc1ccccc1Cl` (stereo not drawn) showed an RP-LC retention time of 811 s. In the case of `CCC(C)NC(=O)c1ccc(-c2ccc(N3CCSCC3)nc2)cc1` (stereo not drawn) it was 711 s; in that of `Cc1nc2cc(N3CC(C(=O)N4CCN(c5ccccc5C)CC4)CC3=O)ccc2o1` (stereo not drawn), 848 s; in that of `COCCNC(=O)Cn1c(N2CCCC2)nc(COC)cc1=O`, 570 s.

For `O=C(c1cc(-c2ccc(F)c(F)c2)on1)N1CCC(Cn2cccn2)CC1`, the RP-LC retention time was 797 s.

`CCc1ccc(N2CC(c3noc(-c4ccco4)n3)CC2=O)cc1` (stereo not drawn) gave an RP-LC retention time of 921 s.

For `CCOC(=O)c1ccc(NC(=O)CC2COc3ccccc3NC2=O)cc1` (stereo not drawn), the RP-LC retention time amounted to 596 s. The molecule `COc1ccc(S(=O)(=O)Nc2ccc(-c3cn4ccc(C)nc4n3)cc2)c(C)c1C` gave an RP-LC retention time of 715 s. On to `CC(=O)NCCc1c(Cc2ccccc2)[nH]c2ccccc12`, for which the RP-LC retention time was determined as 876 s. With `O=C1CCCCC(C(=O)Nc2cccc(Cl)c2)N1` (stereo not drawn) the figure was 712 s; with `CCn1ccc2c(cc(C(=O)NCc3ccc4c(c3)OCO4)n2C)c1=O`, 676 s.
